≈ marks a conversion by molar mass, not a printed value. Where “and” joins values, the source holds several entries; their conditions need not be identical. Identical values can stand only once. Entries after “also recorded” stand apart in the source; their conditions may differ. Like-named read-outs stand apart in the source and are kept apart here.
Legend:
[1] = system: Bacillus spp.; details: cited from earlier work
[2] = system: Bacteroides fragilis; details: cited from earlier work
[3] = system: Bordetella bronchiseptica; details: cited from earlier work
[4] = system: Borrelia burgdorferi; details: unit assumed; cited from earlier work
[5] = system: Branhamella (Moraxella) catarrhalis; details: Branhamella (Moraxella) catarrhalis (β-lactamase producer); in µg/mL (unit assumed); cited from earlier work
[6] = system: Campylobacter jejuni; details: in µg/mL (unit assumed); cited from earlier work
[7] = system: Campylobacter pylori; details: cited from earlier work
[8] = system: Enterococcus faecium; details: unit assumed; cited from earlier work
[9] = system: Enterococcus spp.; details: unit assumed; cited from earlier work
[10] = system: Haemophilus ducreyi; details: unit assumed; cited from earlier work
[11] = system: Haemophilus influenzae; details: in µg/mL (unit assumed), cited from earlier work
[12] = system: Haemophilus parainfluenzae; details: cited from earlier work
[13] = system: Listeria monocytogenes; details: unit assumed; cited from earlier work
[14] = system: Neisseria gonorrhoeae; details: in µg/mL (unit assumed), cited from earlier work
[15] = system: Neisseria meningitidis; details: cited from earlier work
[16] = system: Staphylococcus aureus; details: cited from earlier work; for MIC50 / MIC90: unit assumed
[17] = system: Streptococcus agalactiae; details: cited from earlier work
[18] = system: Streptococcus pneumoniae; details: in µg/mL (unit assumed); cited from earlier work
[19] = system: Streptococcus pyogenes; details: in µg/mL (unit assumed); cited from earlier work
[20] = system: Streptococcus spp.; details: unit assumed; cited from earlier work
[21] = system: Mycoplasma hominis; details: cited from earlier work
[22] = system: Mycoplasma pneumoniae; details: cited from earlier work
[23] = system: TLR4 mediated signaling in human umbilical vein endothelial cells (HUVECS); test: LOS stimulated IL-8 release from HUVECS; format: cell-based; details: HUVECs treated overnight with LOS aggregates (3 ng/ml), soluble CD14 (250 ng/ml), LBP (100 ng/ml); ASL washings or supernatants of transfected 293 cells
Description: FIGS. 2A-2B. Effects of airway surface liquid (ASL), PLUNC, and LPLUNC1 on TLR4 mediated signaling in human umbilical vein endothelial cells (HUVECS). HUVECS in a 24 well dish were exposed to LOS from N. Meningitidis overnight in the presence of SCD14 and LBP. […] Control=media alone. […] Control cells were transfected with a plasmid expressing GFP. The transfection efficiency, based on GFP expression was >75%.
Alternatively, the inventors also consider the possibility that the properties of the proteins may be LBP-like and that their function may depend on the available concentrations. The ability of ASL to inhibit TLR4-mediated signaling in response to N. meningitis lipooligosaccharide (LOS) was tested in human umbilical vein endothelial cells (HUVECs) (Giardina et al., 2001). ASL secretions were recovered from the apical surface of primary cultures of human airway epithelia grown in serum free media by washing the surface with PBS. As show in FIG. 2A, HUVECs treated overnight with LOS aggregates (3 ng/ml) in the presence of soluble CD14 (250 ng/ml) and LBP (100 ng/ml) released significant quantities of IL-8 into the cell culture media. […] To determine whether PLUNC and/or LPLUNC1 have similar effects on TLR4 signaling, the inventors expressed their cDNAs in 293 cells grown in serum free media and harvested supernatants 48 hr following transfection.

[24] = system: endotoxin from E. coli 0111:B4; test: Limulus amebocyte lysate assay, endotoxin spiked with serial dilutions; format: biochemical; details: 30 ng E. coli endotoxin/well spiked with serial dilutions of ASL washings or supernatant from LPLUNC1 transfected 293 cells
Method: FIG. 3. ASL and LPLUNC1 inhibit endotoxin activity in the Limulus amebocyte lysate assay. Endotoxin activity contrasted in control media (closed circles, 30 ng E. coli endotoxin/well), or 30 ng endotoxin samples spiked with serial dilutions of ASL washings (closed squares) or cell culture supernatant from LPLUNC1 transfected 293 cells (closed diamonds). 10 EU=1 ng endotoxin.
As confirmation of the endotoxin binding activities of ASL secretions and expressed LPLUNC1, an additional assay was performed. The Limulus amebocyte lystate assay (QCL-1000; BioWhittaker, Walkersville, Md.) was used to determine if these samples inhibited endotoxin activity in this extremely sensitive laboratory test. Lyophilized standard endotoxin from E. coli 0111:B4 in sterile water (chromogenic substrate) was spiked with serial dilutions of ASL washings, or supernatants from LPLUNC1 transfected cells. Endotoxin concentrations were determined by measuring the change in absorbance at 405 nm, as described previously (Thorne et al., 1999).

[25] = system: LOS; test: Limulus amebocyte lysate assay, detected LOS; format: biochemical; details: proteins from cell free in vitro translation (RTS) or HeLa supernatants, dilutions 1:1 to 1:8; 0.1 ng/ml LOS
[26] = system: human peripheral blood mononuclear cells stimulated by N. meniningititis lipo-oligosaccharide (LOS); test: LOS stimulation of human peripheral blood mononuclear cells; format: cell-based; details: baculovirus culture supernatants, N-terminal tagged proteins, 10 ng/ml N. meniningititis LOS
[27] = format: binding, N. meningitidis; details: recombinant LPLUNC1 C-terminal 6HIS incubated with 14C-LOS for 1 hr; versus Ad empty control supernatant
[28] = Haemophilus influenzae (non β-lactamase producer)
[29] = Haemophilus influenzae (penicillin resistant)
[30] = Haemophilus influenzae (penicillin susceptible)
[31] = Haemophilus influenzae (β-lactamase producer)
[32] = Neisseria gonorrhoeae (non β-lactamase producer)
[33] = Staphylococcus aureus (penicillin susceptible)

CC[C@H]1OC(=O)[C@H](C)[C@@H](O[C@H]2C[C@@](C)(OC)[C@@H](O)[C@H](C)O2)[C@H](C)[C@@H](O[C@@H]2O[C@H](C)C[C@H](N(C)C)[C@H]2O)[C@](C)(O)C[C@@H](C)C(=O)[C@H](C)[C@@H](O)[C@]1(C)O [ERYTHROMYCIN, erythromycin]
Range (of MIC) ([1]; in µg/mL (unit assumed)): 0.03-2 | MIC90 ([1]; unit assumed): 2 µg/mL (≈ 2.73 µM) | Range (of MIC) ([2]; in µg/mL (unit assumed)): 0.25-16 | MIC50 ([2]; unit assumed): 1 µg/mL (≈ 1.36 µM) | MIC90 ([2]; unit assumed): 8 µg/mL (≈ 10.9 µM) | Range (of MIC) ([3]; in µg/mL (unit assumed)): 4-32 | MIC50 ([3]; unit assumed): 8 µg/mL (≈ 10.9 µM) | MIC90 ([3]; unit assumed): 32 µg/mL (≈ 43.6 µM) | MIC50 [4]: 0.03 µg/mL (≈ 0.0409 µM) | MIC90 [4]: 0.06 µg/mL (≈ 0.0818 µM) | Range (of MIC) [5]: 0.06-1 and 0.03-0.25 and 0.06-8 | MIC90 [6]: 4 and 2 | Range (of MIC) [6]: 0.5-8 | Range (of MIC) ([7]; in µg/mL (unit assumed)): 0.25-16 | MIC50 ([7]; unit assumed): 0.5 µg/mL (≈ 0.681 µM) | MIC50 [8]: 1 µg/mL (≈ 1.36 µM) | MIC50 [9]: 2 µg/mL (≈ 2.73 µM) | MIC50 [10]: 0.004 µg/mL (≈ 0.00545 µM) | MIC90 [10]: 0.06 µg/mL (≈ 0.0818 µM) | MIC50 [11, 28]: 2 and 4 | MIC90 [11, 28]: 4 and 8 | MIC50 [11, 29]: 8 | MIC90 [11, 29]: 16 | Range (of MIC) [11, 29]: 8-16 | MIC50 [11, 30]: 8 | MIC90 [11, 30]: 16 | Range (of MIC) [11, 30]: 0.25-16 | MIC50 [11, 31]: 4 and 2 | MIC90 [11, 31]: 8 and 4 | MIC50 ([11]; Haemophilus influenzae): 2 and 1 | MIC90 ([11]; Haemophilus influenzae): 2 and 4 | Range (of MIC) ([11]; Haemophilus influenzae): 0.5-8 | Range (of MIC) ([12]; in µg/mL (unit assumed)): 0.5-8 | MIC50 ([12]; unit assumed): 2 µg/mL (≈ 2.73 µM) | MIC90 ([12]; unit assumed): 4 µg/mL (≈ 5.45 µM) | MIC50 [13]: 0.5 µg/mL (≈ 0.681 µM) | MIC90 [14, 32]: 1 and 2 | Range (of MIC) [14, 32]: 0.03-2 and 0.015-4 | MIC90 ([14]; Neisseria gonorrhoeae (β-lactamase producer)): 2 and 4 | MIC90 ([14]; Neisseria gonorrhoeae): 1 | Range (of MIC) ([14]; Neisseria gonorrhoeae): 0.0075-8 | Range (of MIC) ([15]; in µg/mL (unit assumed)): 0.5-8 | MIC50 ([15]; unit assumed): 1 µg/mL (≈ 1.36 µM) | MIC90 ([15]; unit assumed): 8 µg/mL (≈ 10.9 µM) | MIC50 ([16]; Staphylococcus aureus (methicillin susceptible)): 0.5 µg/mL (≈ 0.681 µM) | MIC50 [16, 33]: 0.5 µg/mL (≈ 0.681 µM) | MIC90 [16, 33]: 0.5 µg/mL (≈ 0.681 µM) | MIC50 ([16]; Staphylococcus aureus): 0.5 µg/mL (≈ 0.681 µM) | Range (of MIC) ([17]; in µg/mL (unit assumed)): 0.03-0.25 and 0.015-0.06 | MIC50 ([17]; unit assumed): 0.03 µg/mL (≈ 0.0409 µM) | MIC90 ([17]; unit assumed): 0.03 µg/mL (≈ 0.0409 µM) | MIC50 [18]: 0.06 and 0.03 | MIC90 [18]: 0.03 and 0.06 | Range (of MIC) [18]: 0.03-0.25 and 0.015-0.06 and 0.015-0.25 | MIC50 [19]: 0.06 and 0.03 | MIC50 [20]: 0.03 µg/mL (≈ 0.0409 µM)

CCC[C@@H]1C[C@@H](C(=O)N[C@@H]([C@H]2O[C@H](SC)[C@H](O)[C@@H](O)[C@H]2O)[C@@H](C)O)N(C)C1 [LINCOMYCIN, lincomycin]
Range (of MIC) ([21]; in µg/mL (unit assumed)): 0.5-16 | MIC50 ([21]; unit assumed): 2 µg/mL (≈ 4.92 µM) | MIC90 ([21]; unit assumed): 4 µg/mL (≈ 9.84 µM) | Range (of MIC) ([22]; in µg/mL (unit assumed)): 2-32 | MIC50 ([22]; unit assumed): 8 µg/mL (≈ 19.7 µM) | MIC90 ([22]; unit assumed): 32 µg/mL (≈ 78.7 µM) | Range (of MIC) ([16]; Staphylococcus aureus, in µg/mL (unit assumed)): 0.5-512 | MIC50 ([16]; Staphylococcus aureus): 1 µg/mL (≈ 2.46 µM) | MIC90 ([16]; Staphylococcus aureus): 1 µg/mL (≈ 2.46 µM)

B1: LPLUNC1: human long PLUNC protein, 484 amino acids; tested as recombinant culture supernatant, in vitro translation product or 6HIS tagged protein (protein, UniProt Q8TDL5 22-484, looked up)
BPI fold-containing family B …: TLSPTAVLILGPKVIKEKLTQELKDHNATSILQQLPLLSAMREKPAGGIPVLGSLVNTVLKHIIWLKVITANILQLQVKPSANDQELLVKIPLDMVAGFNTPLVKTIVEFHMTTEAQATIRMDTSASGPTRLVLSDCATSHGSLRIQLLHKLSFLVNALAKQVMNLLVPSLPNLVKNQLCPVIEASFNGMYADLLQLVKVPISLSIDRLEFDLLYPAIKGDTIQLYLGAKLLDSQGKVTKWFNNSAASLTMPTLDNIPFSLIVSQDVVKAAVAAVLSPEEFMVLLDSVLPESAHRLKSSIGLINEKAADKLGSTQIVKILTQDTPEFFIDQGHAKVAQLIVLEVFPSSEALRPLFTLGIEASSEAQFYTKGDQLILNLNNISSDRIQLMNSGIGWFQPDVLKNIITEIIHSILLPNQNGKLRSGVPVSLVKALGFEAAESSLTKDALVLTPASLWKPSSPVSQ
effect on LOS stimulated IL-8 release from HUVECS [23]: dampened IL-8 secretion | inhibition of endotoxin activity [24]: inhibited endotoxin activity in a dose dependent fashion | detectable level of LOS [25]: dose-dependent decrease in detected LOS | effect on responsiveness of PBMC to LOS stimulation [26]: BPI-like inhibitory effects; also recorded: dampened the proinflammatory effect of LOS | 14C-LOS recovered with nickel resin [27]: Significantly more LOS was recovered

B2: PLUNC: human palate, lung, and nasal epithelium clone protein, 256 amino acids; tested as recombinant culture supernatant or in vitro translation product (protein, UniProt Q9NP55 20-256, looked up)
BPI fold-containing family A …: QFGGLPVPLDQTLPLNVNPALPLSPTGLAGSLTNALSNGLLSGGLLGILENLPLLDILKPGGGTSGGLLGGLLGKVTSVIPGLNNIIDIKVTDPQLLELGLVQSPDGHRLYVTIPLGIKLQVNTPLVGASLLRLAVKLDITAEILAVRDKQERIHLVLGDCTHSPGSLQISLLDGLGPLPIQGLLDSLTGILNKVLPELVQGNVCPLVNEVLRGLDITLVHDIVNMLIHGLQFVIKV
effect on LOS stimulated IL-8 release from HUVECS [23]: dampened IL-8 secretion | detectable level of LOS [25]: dose-dependent decrease in detected LOS | effect on responsiveness of PBMC to LOS stimulation [26]: LBP-like pro-inflammatory activity | effect on responsiveness of PBMC to LOS stimulation ([26]; listed as SPLUNC1): enhanced the LOS signaling

Source: patent publication US20050192221A1, “Methods and compositions related to plunc polypeptides” (priority 2003, published 2005)
